# Experimental data published in patent US9440913B2, “Dihydroxybenzene derivatives and antiprotozoal agent comprising same as active ingredient” (NAI INC., priority 2010, dated 2016).
# Assays:
# [1] = test system: T. b. rhodesiense IL1501; assay: Antiprotozoal effect, MIC measurement in HMI-9 culture; assay type: cell-based; conditions: bloodstream forms, 18 + 6 hours culture
# Description: T. b. rhodesiense IL1501, the human infectious protozoan that causes acute symptoms, was used as a Trypanosomatid protozoan. The bloodstream forms of protozoan can be cultured in a HMI-9 culture medium (Hirumi, 1989). The protozoan was always cultured at a temperature of 37° C. in the presence of 5% CO2.
# In a microtiter plate (96-well, FALCON 3072), HMI-9 culture medium and HMI-9 culture medium plus glycerol added to make a final concentration of 8.33 mM are separately prepared. 89 μL of the preparation are put into only the first well, and a 60 μL aliquot of each the other wells. 1 μL of a solution of AF or a AF derivative dissolved in DMSO was added to the first well, and was then suspended. A 30 μL aliquot of the suspension was then collected, was transferred to the second well, and was suspended. These operations were repeated in this order to prepare a three-fold dilution series of drug. A 40 μL aliquot of a protozoan culture was added to each well to make a final concentration of 5×10^4 cells/well (a final concentration of glycerol of 5 mM) followed by 18-hours culturing under conditions of 37° C. and 5% CO2. (For EC50 measurement, a 10 μL aliquot of Alamar Blue was added to each well), culturing was carried out under the same conditions for 6 more hours, surviving protozoans were visually observed with a microscope. The concentration at which no motile surviving protozoan was observed was defined as MIC.
# [2] = biological target: T1, recombinant Trypanosome AOX (TAO) enzyme (Trypanosoma brucei brucei, UniProt Q26710); assay: TAO enzyme inhibition (quinol oxidase activity, ubiquinol-1 substrate); assay type: biochemical, T. brucei brucei; conditions: TAO-expressing E. coli membrane fraction, 25° C., ubiquinol-1, absorbance at 278 nm
# T1 construct: made in house; host or cells: Escherichia coli (membrane fraction)
# Description: Escherichia coli membrane fractions that express TAO by a plasmid harboring TAO cDNA cloned from T. brucei brucei (Fukai, Comparative Biochemistry & Physiology, 124, 141-148, 1999) were used as a recombinant Trypanosome AOX (TAO) enzyme. 50 mM Tris-HCl (pH 7.5), TAO-expressing membrane fraction (0.35 ng), and […] of an inhibitor were mixed in a 1 mL cuvette, and the mixture was incubated at 25° C. for 4 minutes. Ubiquinol-1 as a substrate was then added to the mixture to initiated the reaction, and change in absorbance at 278 nm was monitored (Shimadzu UV-3000, molar absorption coefficient ε=15 cm^−1 mM^−1).
# [3] = Trypanosoma brucei, RHODESIENSE, 24 h, Glycerol (+), final concentration of glycerol of 5 mM
# [4] = Trypanosoma brucei, RHODESIENSE, 24 h, Glycerol (−)
# T1 sequence (Q26710 whole entry): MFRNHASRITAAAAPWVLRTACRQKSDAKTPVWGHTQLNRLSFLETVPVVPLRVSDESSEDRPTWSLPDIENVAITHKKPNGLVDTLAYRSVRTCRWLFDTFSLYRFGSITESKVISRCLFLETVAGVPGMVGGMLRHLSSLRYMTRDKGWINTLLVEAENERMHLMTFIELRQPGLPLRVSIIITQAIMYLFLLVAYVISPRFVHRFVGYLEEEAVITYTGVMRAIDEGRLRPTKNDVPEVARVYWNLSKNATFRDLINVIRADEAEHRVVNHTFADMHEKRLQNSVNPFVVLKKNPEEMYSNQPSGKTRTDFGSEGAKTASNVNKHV
SMILES,"MIC [1, 3]","MIC [1, 4]",IC50 [2],further results
COC(=O)c1cc(Cl)c(O)c(C/C=C(\C)CCC=C(C)C)c1O,–,–,–,melting point: 71 °C
"CC(=O)c1c(C)c(Cl)c(O)c(CCCCCCCOC(=O)C(C)(C)C)c1O [Compound 172-11-OPiv, 7-(3-Acetyl-5-chloro-2,6-dihydroxy-4-methylphenyl)heptyl pivalate]",19 nM,540 nM,8 nM,–
"CC(=O)c1c(C)c(Cl)c(O)c(C/C=C(\C)CC/C=C(\C)COC(=O)C(C)(C)C)c1O [Compound 175-12-OPiv, (2E,6E)-8-(5-Acetyl-3-chloro-2,6-dihydroxy-4-methylphenyl)-2,6-dimethyl-2,6-octadienyl pivalate]",1.4 nM,10 nM,0.7 nM,–
"Cc1c(Cl)c(O)c(/C=C/CCCCCOC(=O)C(C)(C)C)c(O)c1C=O [Compound 200-11-OPiv, (E)-7-(3-Chloro-5-formyl-2,6-dihydroxy-4-methylphenyl)-6-heptenyl pivalate]",0.8 nM,22 nM,0.53 nM,–
"COC(=O)CCCCCCC/C=C/c1c(O)c(Cl)c(C)c(C=O)c1O [Compound 200-12-COOMe, (E)-Methyl 10-(3-chloro-5-formyl-2,6-dihydroxy-4-methylphenyl)-10-decenoate]",33 nM,120 nM,0.5 nM,–
"Cc1c(Cl)c(O)c(/C=C/CCCCCCOC(=O)C(C)C)c(O)c1C=O [Compound 200-12-OCOiPr, (E)-8-(3-Chloro-5-formyl-2,6-dihydroxy-4-methylphenyl)-7-octenyl isobutylate]",–,–,0.75 nM,–
"CC(=O)c1c(C)c(Cl)c(O)c(C/C=C(\C)CC/C=C(\C)C2CC(=O)C(C)(C)O2)c1O (centres unmarked) [Compound 214, 5-Chloro-2,4-dihydroxy-6-methyl-3-[(2E,6E)-7-(5,5-dimethyl-4-oxotetrahydrohuran-2-yl)-3,7-dimethyl-2,6-heptadienyl]acetophenone]",–,–,0.3 nM,–
"CCOC(=O)CCCCCCCc1c(O)c(Cl)c(C)c(C=O)c1O [Compound 215-11-COOEt, Ethyl 8-(3-chloro-5-formyl-2,6-dihydroxy-4-methylphenyl)octanoate]",8.5 nM,48 nM,0.5 nM,–
"Cc1c(Cl)c(O)c(CCCCCCCCCC(=O)C(C)(C)C)c(O)c1C=O [Compound 215-12-Piv, 3-Chloro-4,6-dihydroxy-5-(11,11-dimethyl-10-oxo-dodecyl)-2-methylbenzaldehyde]",–,–,0.4 nM,–
"CCOC(=O)CCCCCCCCCc1c(O)c(Cl)c(C)c(C=O)c1O [Compound 215-13-COOEt, Ethyl 10-(3-chloro-5-formyl-2,6-dihydroxy-4-methylphenyl)decanoate]",2 nM,24 nM,0.2 nM,–
"Cc1c(Cl)c(O)c(CCCCCCCCCOC(=O)C(C)C)c(O)c1C=O [Compound 215-13-OCOiPr, 9-(3-Chloro-5-formyl-2,6-dihydroxy-4-methylphenyl)nonyl isobutylate]",–,–,0.3 nM,–
"COC(C)(C)CCC/C(C)=C/Cc1c(O)c(Cl)c(C)c(C=O)c1O [Compound 231-9-OMe, 3-Chloro-4,6-dihydroxy-5-[(E)-7-methoxy-3,7-dimethyl-2-octeny]-2-methylbenzaldehyde]",–,–,0.29 nM,–
"C/C(=C\Cc1c(O)c(Cl)c(C)c(C=O)c1O)CC/C=C(\C)COC1CCCCO1 (centres unmarked) [Compound 236-13-OTHP, 3-Chloro-5-[(2E,6E)-3,7-dimethyl-8-(tetrahydropyran-2-yloxy)-2,6-octadienyl]-4,6-dihydroxy-2-methylbenzaldehyde]",–,–,0.2 nM,–
"Cc1c(Cl)c(O)c(/C=C/CCCCCC2CC(=O)C(C)(C)O2)c(O)c1C=O (centres unmarked) [Compound 249, 3-Chloro-4,6-dihydroxy-2-methyl-5-[(E)-7-(5,5-dimethyl-4-oxo-tetrahydrofuran-2-yl)-1-heptenyl]benzaldehyde]",18 nM,74 nM,1 nM,–
"CCCCC/C(C)=C/Cc1c(O)c(Cl)c(C)c(C=O)c1O [Compound 264-8, (E)-3-Chloro-4,6-dihydroxy-2-methyl-5-(3-methyl-2-octenyl)benzaldehyde]",0.002 nM,0.18 nM,0.06 nM,–
"C/C(=C\Cc1c(O)c(Cl)c(C)c(C=O)c1O)CCCCOC(=O)C(C)(C)C [Compound 264-11-OPiv, (5E)-7-(3-Chloro-5-formyl-2,6-dihydroxy-4-methylphenyl)-5-methyl-5-heptenyl pivalate]",–,–,0.22 nM,–
"CCCCCC(C)CCc1c(O)c(Cl)c(C)c(C(C)=O)c1O (centres unmarked) [Compound 269-8, 3-Chloro-4,6-dihydroxy-2-methyl-5-(3-methyloctyl)acetophenone]",–,–,2.5 nM,"MIC ([1]; Glycerol (+), final concentration of glycerol of 5 mM): 70 nM; MIC ([1]; Glycerol (−)): 500 nM"
"CCCCC/C(C)=C/COc1cc(O)c(C(C)=O)c(C)c1Cl [Compound 270-8, (E)-3-Chloro-6-hydroxy-2-methyl-(3-methyl-2-octenoxy)acetophenone]",3700 nM,9200 nM,300 nM,–
"C/C(=C\CC/C=C/Cc1c(O)c(Cl)c(C)c(C=O)c1O)COC(=O)C(C)(C)C [Compound 278-12-OPiv, (2E,6E)-8-(3-Chloro-5-formyl-2,6-dihydroxy-4-methylphenyl)-2-methyl-2,6-octadienyl pivalate]",–,–,0.26 nM,–
"Cc1c(Cl)c(O)c(CCCCCCC(C)COC(=O)C(C)(C)C)c(O)c1C=O (centres unmarked) [Compound 279-12-OPiv, 8-(3-Chloro-5-formyl-2,6-dihydroxy-4-methylphenyl)-2-methyloctyl pivalate]",–,–,0.41 nM,–
"CC(=O)c1c(C)c(Cl)c(O)c(C/C=C(\C)CC/C=C(\C)C(C)O)c1O (centres unmarked) [Compound 286-9-OH, (2E,6E)-3-Chloro-4,6-dihydroxy-2-methyl-5-(8-hydroxy-3′,7′-dimethyl-2′,6′-nonadienyl)acetophenone]",–,–,7.1 nM,–
"C/C(=C\COC(=O)C(C)C)CC/C(C)=C/Cc1c(O)c(Cl)c(C)c(C=O)c1O [Compound 287-12-OCOiPr, (2E,6E)-8-(3-Chloro-5-formyl-2,6-dihydroxy-4-methylphenyl)-3,6-dimethyl-2,6-octadienyl isobutylate]",–,–,0.26 nM,–
"C/C(=C\COC(=O)C(C)(C)C)CC/C(C)=C/Cc1c(O)c(Cl)c(C)c(C=O)c1O [Compound 287-12-OPiv, (2E,6E)-8-(3-Chloro-5-formyl-2,6-dihydroxy-4-methylphenyl)-3,6-dimethyl-2,6-octadienyl pivalate]",–,–,0.36 nM,–
"Cc1c(Cl)c(O)c(C/C=C/CCCC/C=C/C(=O)C(C)(C)C)c(O)c1C=O [Compound 288-12-Piv, 3-Chloro-4,6-dihydroxy-5-((E,E)-11,11-dimethyl-10-oxo-2,8-dodecadienyl)-2-methylbenzaldehyde]",–,–,0.74 nM,–
"C/C(=C\Cc1c(O)c(Cl)c(C)c(C=O)c1O)CC/C=C/COC(=O)C(C)(C)C [Compound 289-12-OPiv, (2E,6E)-8-(3-Chloro-5-formyl-2,6-dihydroxy-4-methylphenyl)-6-methyl-2,6-octadienyl pivalate]",–,–,0.2 nM,–
"Cc1c(Cl)c(O)c(CCC(C)CCCCCOC(=O)C(C)(C)C)c(O)c1C=O (centres unmarked) [Compound 290-12-OPiv, 8-(3-Chloro-5-formyl-2,6-dihydroxy-4-methylphenyl)-6-methyloctyl pivalate]",–,–,0.3 nM,–
"C/C(=C\Cc1c(O)c(Cl)c(C)c(CO)c1O)CC/C=C(\C)COC(=O)C(C)(C)C [Compound 503-OPiv, (2E,6E)-8-(3-Chloro-2,6-dihydroxy-5-hydroxymethyl-4-methylphenyl)-2,6-dimethyl-2,6-octadienyl pivalate]",–,–,0.3 nM,–
